# Experimental data taken from patent US10683272B2 (THE JOHNS HOPKINS UNIVERSITY, priority 2014, dated 2020).
# pKi: −log10 of the molar value. Where two headings read alike, the source gives them in different places. Where a SMILES comes first, the peptide text is derived from it. [ ]: non-standard residue; d: D form. The star is where a group is joined. ξ: configuration not given here. X1 = O=C(O)CC[C@H](NC(=O)N[C@@H](CCCCNC(=O)CCCCCCC(=O)*)C(=O)O)C(=O)O; DOTA = O=C(O)CN1CCN(CC(=O)O)CCN(CC(=O)*)CCN(CC(=O)O)CC1; ξF = NC(Cc1ccccc1)C(=O)O
# Experiments:
# [1] = test system: PSMA+ PIP and PSMA− flu mouse xenografts; details: for uptake in PSMA+ tumor: n=4, text b326
# Method: In vivo evaluation was performed in standard PSMA+ PIP and PSMA− flu mouse xenografts and by performing SPECT imaging with a VECT or instrument with an extra ultra-high sensitivity mouse collimator as disclosed FIG. 25A, FIG. 25B and FIG. 25C.
# [2] = test system: PSMA+ PIP and PSMA− flu cells; assay: cell uptake and internalization study of ^177Lu-SRVI71; format: cell-based
# [3] = test system: PSMA+ PC3 PIP and PSMA− PC3 flu cells; assay: T1-weighted MR imaging of cell pellets; format: cell-based, human; details: PSMA+ PC3 PIP vs PSMA− PC3 flu cell pellets
# Method: FIG. 4A through FIG. 4C show T1 contrast enhancement generated by Gd3 in an isogenic human PC3 prostate cancer cell pair, PSMA+ PIP and PSMA− flu cells; (A) Color coded T1 maps of PIP and flu cells. Relaxation rates were determined at 25° C. at 9.4 T; (B) Quantification of T1 changes (ΔT1) in PIP and flu cells (n=4, P<0.05) following treatment with Gd3; (C) cellular uptake of Gd3 in PIP and flu cells.
# (§1) When imaged at 9.4 T and 25° C., solution phantoms indicated r1 relaxivities in PBS that vary between 3.0 and 6.2 mM^−1 s^−1 per Gd(III) and between 3.0 and 12.5 mM-1 s-1 per contrast agent (Table 1). As expected, Gd1 has the lowest relaxivity followed by Gd2 and Gd3 at 25° C. To determine selectivity and specificity of the agents, human prostate cancer cells genetically modified to express high amounts of PSMA (PC3 PIP) and the corresponding wild-type, PSMA-non-expressing cells (PC3 flu) were selected as negative control (Banerjee, Angew., 2001). […] Enhancement and T1 measurements by means of MRI of the cell pellets in the presence and absence of 50 μM Gd3 indicated higher enhancement and difference in T1 relaxation rates, ΔR1 between Gd3 treated PIP cells and the control PIP cells as compared to the Gd3-treated flu cells and the control flu control cells, after removal of the Gd3 from the cell system by washing with standard medium (FIG. 4B and FIG. 4C).
# PSMA+ PC3 PIP cells [4] = assay: ICP-MS analysis of Gd in cell pellets; format: cell-based, human
# Excerpt: Thus, the difference between ΔR1 of the PIP cells and that of the flu cells reflects the change due to the specific Gd3 binding to PSMA in the PIP cells.
# PSMA+ PC3 PIP cells [5] = assay: cell internalization assay (ICP-MS); format: cell-based, human; details: PSMA+ PC3 PIP cells, 4 h incubation
# Method: FIG. 6A and FIG. 6B show the % ID of Gd3 cell surface bound (A) and internalized (B) at 1, 4 and 24 h;
# Moreover, slightly higher non-specific uptake was associated with Gd2 in PSMA− PC3 flu cells, which might be related to the lower K1 value of this agent compared to Gd1. As a further check on cellular uptake and internalization, a dual modality Gd monomeric contrast agent labeled with Rhodamine-Red™-X was prepared to confirm the PSMA-mediated internalization of this class of contrast agents (FIG. 5D).
# A time-dependent internalization study was performed for Gd3 (FIG. 6A and FIG. 6B) after 1, 4 and 24 h of incubation. […] A similar amount of Gd (˜33-37% ID) was associated with the cell membrane at those same time-points.
# [6] = r1 relaxivity of solution phantoms at 9.4 T and 25° C.; format: physicochemical
# Method: as §1
# PSMA = PSMA (Homo sapiens, UniProt Q04609); assay: fluorescence-based PSMA inhibition assay (Example 1); format: biochemical
# PSMA, sequence (Q04609 whole entry): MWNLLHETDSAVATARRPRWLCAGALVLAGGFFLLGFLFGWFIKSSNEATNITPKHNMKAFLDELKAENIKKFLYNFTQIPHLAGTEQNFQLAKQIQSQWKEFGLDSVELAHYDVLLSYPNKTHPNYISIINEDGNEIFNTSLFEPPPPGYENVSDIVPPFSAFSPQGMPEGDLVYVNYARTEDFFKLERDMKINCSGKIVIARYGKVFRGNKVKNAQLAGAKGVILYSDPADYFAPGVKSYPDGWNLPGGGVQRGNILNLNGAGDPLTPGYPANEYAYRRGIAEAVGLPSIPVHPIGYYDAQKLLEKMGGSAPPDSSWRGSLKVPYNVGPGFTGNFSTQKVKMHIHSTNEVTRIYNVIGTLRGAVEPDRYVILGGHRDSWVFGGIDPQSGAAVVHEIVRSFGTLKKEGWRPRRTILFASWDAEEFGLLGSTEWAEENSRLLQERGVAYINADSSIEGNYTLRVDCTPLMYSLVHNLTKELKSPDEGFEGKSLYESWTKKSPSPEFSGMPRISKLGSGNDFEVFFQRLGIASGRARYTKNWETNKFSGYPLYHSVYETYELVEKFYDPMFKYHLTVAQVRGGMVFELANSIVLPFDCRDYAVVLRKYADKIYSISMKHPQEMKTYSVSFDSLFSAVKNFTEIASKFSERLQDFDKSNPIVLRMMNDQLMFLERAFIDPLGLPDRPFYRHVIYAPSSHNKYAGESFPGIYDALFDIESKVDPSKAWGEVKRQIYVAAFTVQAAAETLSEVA
# [7] = test system: PSMA+ PC-3 PIP and PSMA− PC-3 flu tumors; assay: small animal PET-CT imaging; format: in vivo, NOD/SCID mice; details: 2 h post-injection
# Method: Mice (n=3 for ^86Y-4 or ^86Y-6 and n=2 for ^86Y-5) were injected via the tail vein with 3.33-6.21 MBq (90-168 μCi) of radiotracer formulated in 100 μL of saline at pH ˜7. […] At different time points, anesthetized individual mice were placed in the prone position on the scanner gantry and secured with medical tape while the anesthesia flow rate was increased to 0.8 L/min. Images were reconstructed using the FORE/2D-OSEM method (two iterations, 16 subsets) and included correction for radioactive decay, scanner dead time, and scattered radiation. Partial volume correction (PVC) was not performed. After each PET scan, a CT scan was acquired for anatomic co-registration. To facilitate PET and CT image co-registration, a special animal bed was employed which fits both the PET and CT scanners. The animals were under anesthesia and immobilized when moving between scanners as well as during both scans. The reconstructed PET and CT images were then manually co-registered through rigid transformation, by aligning natural landmarks (such as the animal limbs and the bed contour) using the AMIDE software (from sourceforge.net/amide).
# Dynamic, whole-body PET and CT images were acquired on an eXplore VISTA small-animal PET (GE Healthcare, Little Chalfont, Buckinghamshire, UK) and an X-SPECT small SPECT/CT system (Gamma Medica Ideas, Northridge, Calif.), respectively.
smiles,measurement,setting,value
O=C([O-])CN1CCN(CC(=O)[O-])CCN(CC(=O)[O-])C(Cc2ccc(NC(=S)NCCCCNC(=O)CCCCCCC(=O)NCCCC[C@H](NC(=O)N[C@@H](CCC(=O)O)C(=O)O)C(=O)O)cc2)CN(CC(=O)[O-])CC1.[177Lu+3] (stereo partly drawn) [^177Lu-SR-VI-71],PIP:flu ratio,[1]; 2 h,~180
same,kidney uptake,[1]; 2 h,89.3±28.9%
same,uptake in PSMA+ tumor,[1]; 2 h,59.1±12.8 % ID/g
same,"Tissue biodistribution, Blood",[1]; 3 h,0.14 ± 0.04
same,"Tissue biodistribution, Flu tumor",[1]; 3 h,0.14 ± 0.03
same,"Tissue biodistribution, PIP tumor",[1]; 3 h,41.46 ± 7.88
same,"Tissue biodistribution, SI",[1]; 3 h,0.23 ± 0.12
same,"Tissue biodistribution, heart",[1]; 3 h,0.09 ± 0.04
same,"Tissue biodistribution, kidney",[1]; 3 h,53.66 ± 9.64
same,"Tissue biodistribution, liver",[1]; 3 h,0.31 ± 0.25
same,"Tissue biodistribution, lung",[1]; 3 h,0.62 ± 0.31
same,"Tissue biodistribution, muscle",[1]; 3 h,0.24 ± 0.14
same,"Tissue biodistribution, salivary gland",[1]; 3 h,0.42 ± 0.09
same,"Tissue biodistribution, spleen",[1]; 3 h,1.83 ± 0.38
same,"Tissue biodistribution, Blood",[1]; 24 h,0.03 ± 0.03
same,"Tissue biodistribution, Flu tumor",[1]; 24 h,0.09 ± 0.01
same,"Tissue biodistribution, PIP tumor",[1]; 24 h,27.52 ± 1.19
same,"Tissue biodistribution, SI",[1]; 24 h,0.10 ± 0.05
same,"Tissue biodistribution, heart",[1]; 24 h,0.04 ± 0.00
same,"Tissue biodistribution, kidney",[1]; 24 h,4.35 ± 0.41
same,"Tissue biodistribution, liver",[1]; 24 h,0.38 ± 0.35
same,"Tissue biodistribution, lung",[1]; 24 h,0.25 ± 0.026
same,"Tissue biodistribution, muscle",[1]; 24 h,0.04 ± 0.00
same,"Tissue biodistribution, salivary gland",[1]; 24 h,0.07 ± 0.08
same,"Tissue biodistribution, spleen",[1]; 24 h,0.74 ± 0.64
same,kidney uptake,[1]; 24 h,6.29±3.4 % ID/g
same,uptake in PSMA+ tumor,[1]; 24 h,40.6±5.8 ID/g
same,"Tissue biodistribution, Blood",[1]; 48 h,0.03 ± 0.03
same,"Tissue biodistribution, Flu tumor",[1]; 48 h,0.05 ± 0.00
same,"Tissue biodistribution, PIP tumor",[1]; 48 h,16.99 ± 2.65
same,"Tissue biodistribution, SI",[1]; 48 h,0.04 ± 0.01
same,"Tissue biodistribution, heart",[1]; 48 h,0.02 ± 0.00
same,"Tissue biodistribution, kidney",[1]; 48 h,2.35 ± 0.62
same,"Tissue biodistribution, liver",[1]; 48 h,0.11 ± 0.07
same,"Tissue biodistribution, lung",[1]; 48 h,0.06 ± 0.04
same,"Tissue biodistribution, muscle",[1]; 48 h,0.02 ± 0.00
same,"Tissue biodistribution, salivary gland",[1]; 48 h,0.10 ± 0.04
same,"Tissue biodistribution, spleen",[1]; 48 h,0.17 ± 0.05
same,"Tissue biodistribution, Blood",[1]; 72 h,0.01 ± 0.01
same,"Tissue biodistribution, Flu tumor",[1]; 72 h,0.04 ± 0.00
same,"Tissue biodistribution, PIP tumor",[1]; 72 h,15.63 ± 4.62
same,"Tissue biodistribution, SI",[1]; 72 h,0.05 ± 0.03
same,"Tissue biodistribution, heart",[1]; 72 h,0.03 ± 0.01
same,"Tissue biodistribution, kidney",[1]; 72 h,2.59 ± 1.10
same,"Tissue biodistribution, liver",[1]; 72 h,0.05 ± 0.03
same,"Tissue biodistribution, lung",[1]; 72 h,0.03 ± 0.02
same,"Tissue biodistribution, muscle",[1]; 72 h,0.01 ± 0.01
same,"Tissue biodistribution, salivary gland",[1]; 72 h,0.09 ± 0.04
same,"Tissue biodistribution, spleen",[1]; 72 h,0.09 ± 0.08
same,"Tissue biodistribution, Blood",[1]; 96 h,0.00 ± 0.00
same,"Tissue biodistribution, Flu tumor",[1]; 96 h,0.03 ± 0.0
same,"Tissue biodistribution, PIP tumor",[1]; 96 h,9.04 ± 1.72
same,"Tissue biodistribution, SI",[1]; 96 h,0.01 ± 0.00
same,"Tissue biodistribution, heart",[1]; 96 h,0.01 ± 0.00
same,"Tissue biodistribution, kidney",[1]; 96 h,1.44 ± 0.11
same,"Tissue biodistribution, liver",[1]; 96 h,0.04 ± 0.0
same,"Tissue biodistribution, lung",[1]; 96 h,0.05 ± 0.01
same,"Tissue biodistribution, muscle",[1]; 96 h,0.01 ± 0.0
same,"Tissue biodistribution, salivary gland",[1]; 96 h,0.06 ± 0.02
same,"Tissue biodistribution, spleen",[1]; 96 h,0.06 ± 0.03
same,cell uptake,"[2]; 0.01-10 μCi, PSMA+ PIP vs PSMA− flu",high uptake in PSMA+ PIP and negligible uptake in PSMA− flu tumor
same,blockade of uptake in PSMA+ cells,[2]; co-incubation of 10 μM of ZJ43,~90%
same,fraction of total cell associated radioactivity internalized,[2]; internalization study,~44%
"O=C([O-])CN1CCN(CC(=O)[O-])CCN(CC(=O)NCCCCC(NC(=O)CN2CCN(CC(=O)[O-])CCN(CC(=O)[O-])CCN(CC(=O)[O-])CC2)C(=O)NC(CCCCNC(=O)CCCCCCC(=O)NCCCC[C@H](NC(=O)N[C@@H](CCC(=O)O)C(=O)O)C(=O)O)C(=O)O)CCN(CC(=O)[O-])CC1.[Gd+3].[Gd+3] (stereo partly drawn) [Gd2, (30S,34S)-2,9,17,24,32-pentaoxo-1-(4,7,10-tris(carboxymethyl)-1,4,7,10-tetraazacyclododecan-1-yl)-8-(2-(4,7,10-tris(carboxymethyl)-1,4,7,10-tetraazacyclododecan-1-yl)acetamido)-3,10,16,25,31,33-hexaazahexatriacontane-11,30,34,36-tetracarboxylic acid, digadolinium(III) salt]",T1-weighted MR contrast of cell pellets,[3],did not demonstrate T1-weighted MR contrast or changes in R1
same,estimated intracellular Gd(III) concentration,PSMA+ PC3 PIP cells [4],~12.5 µM
same,percent of incubated dose associated with the cell surface,PSMA+ PC3 PIP cells [5],3.51±1.32 % ID
same,percent of incubated dose internalized,PSMA+ PC3 PIP cells [5],21.63±3.51 % ID
same,"r1 relaxivity, ionic (per Gd(III))","[6]; 9.4 T, 25° C., PBS",6.2 mM⁻¹ s⁻¹
same,"r1 relaxivity, molecular (per contrast agent)","[6]; 9.4 T, 25° C., PBS",12.5 mM⁻¹ s⁻¹
same,r1 relaxivity,[6]; column T1 of Table 1,5.44 mM⁻¹ s⁻¹
same,pKi,PSMA,7.74
O=C([O-])CN1CCN(CC(=O)[O-])CCN(CC(=O)NC(Cc2ccccc2)C(=O)NC(Cc2ccccc2)C(=O)NC(Cc2ccccc2)C(=O)N[C@@H](CCCCNC(=O)CCCCCCC(=O)NCCCC[C@H](NC(=O)N[C@@H](CCC(=O)O)C(=O)O)C(=O)O)C(=O)O)CCN(CC(=O)[O-])CC1.[86Y+3] (stereo partly drawn) [^86Y-5] ({DOTA}-[ξF][ξF][ξF]K(X1)-OH),non-specific accumulation on PET/CT,[7],non-specific accumulation in the gastrointestinal tract
